One data set deals with HIV-1 (IIIB strain). Kind of data set: MT-4 antiviral cytopathic effect assay, HIV-1 IIIB. It counts as cell-based. In general terms: Damage to the host cells serves as the signal in cytopathic effect assays.
Another data set deals with HIV-1 HXB2 Y181C variant. Kind of data set: MT-4 antiviral cytopathic effect assay, HXB2-Y181C. It counts as cell-based.
Data set [1] in a line: Predicted clearance in human liver microsomes. Format: in vitro ADME. As to conditions: pH 7.4, 1 μM compound, read-out: HLM CLint, pred (converted).
Data set [2] in a line: Solubility assessment, shake-flask method. Format: physicochemical. The settings on record: for solubility: shake-flask. On the procedure: Compound solubility was measured at Analiza (Cleveland, OH) by the standard shake-flask method at pH 1.2 and 7.4 and quantitated by HPLC-UV.
Setting [3] is: preliminary biological data, in words.

Structures are written as SMILES. In brackets after ≈: the same amount, converted by molar mass. Like-named read-outs stand apart in the source and are kept apart here.

The EC50 is the midpoint of the concentration-response curve. Usually solubility stands for the dissolved amount per volume that the medium holds. Turning to `Cc1cc(C#N)cc(C)c1N1CC(=O)Nc2cnc(Nc3ccc(C#N)cc3)nc21` [Compound 3, 4-(2-((4-Cyanophenyl)amino)-6-oxo-6,7-dihydropteridin-8(5H)-yl)-3,5-dimethylbenzonitrile], the EC50 was 8.1 to 8.6 nM in the data set on HIV-1 (IIIB strain) (Human immunodeficiency virus 1, HXB2 / IIIB, range over HIV-1 IIIB and HXB2, read-out: EC50 against both wild-type viruses); 8.6 nM with HIV-1 (IIIB strain) (Human immunodeficiency virus 1, IIIB, MT4, protects 50% of MT-4 cells against HIV-1-induced cell killing, HIV-1 IIIB, WT, read-out: EC50 MT4); 30.2 nM with HIV-1 HXB2 Y181C variant (Human immunodeficiency virus 1, HXB2, read-out: EC50 Y181C). For the same compound, in the data set with HIV-1 (IIIB strain) (setting [3]), the “activity against the WT virus” value was “low nanomolar activity”. In addition, the “Y181C (FC)” value in the data set on HIV-1 HXB2 Y181C variant (fold change: ratio of potency against HXB2 Y181C and parental HXB2) amounted to 3.7; with HIV-1 HXB2 Y181C variant (supplement CSV, fold change vs HXB2), 3.7. In addition, the “potency against Y181C mutated strain” value in the data set with HIV-1 HXB2 Y181C variant (setting [3]) was “high potency”. The CLint scaled at 1.167 h, 1 µM in data set [1] was 18.3 mL/min/kg. In data set [2] (HCl, pH 1.2, supplement CSV, read-out: HCl sol), the solubility thermodynamic is more than 100 µM. The solubility in data set [2] (HCl, pH 1.2, read-out: solubility HCl) was more than 100 µM; in data set [2] (phosphate-buffered saline, pH 7.4, read-out: solubility PBS), 2.3 µM (≈ 0.909 µg/mL). In addition, in data set [2] (preliminary data, in words), the aqueous solubility entry is on record as “significantly improved”. For the same compound, in data set [2] (supplement CSV), the PBS sol was 2.3 µM.
